The record followed here is ChEMBL document CHEMBL3046838, “In vitro and in silico exploration of IL-2 inhibition by small drug-like molecules” (Med Chem Res, 2013).

Converted amounts (≈) assume the structure as drawn.

One assay relates to Blood. Nature of the assay: Inhibition of ROS production in human whole blood after 30 mins by luminol-based chemiluminescence assay. It is filed as functional, tissue-based. The following applies: 0.5 h.
Assay [1] deals with PBMC. Nature of the assay: Immunosuppressive activity in human PBMC assessed as inhibition of PHA/PMA-induced IL-2 production after 18 hrs by ELISA. The assay is classed as functional, cell-based.
Assay [2] concerns PBMC. The assay is described as follows: Immunosuppressive activity in human PBMC assessed as inhibition of PHA-induced T cell proliferation after 72 hrs by [3H]thymidine incorporation assay. It is filed as functional, cell-based. On the technique in general: Uptake of a labelled nucleoside into DNA is a usual measure of proliferation.
In the next assay the test system is 3T3-L1. The assay is described as follows: Cytotoxicity against mouse 3T3L1 after 48 hrs by MTT assay. It is filed as cell-based. Particulars: 3T3-L1, 48 h.
The test system of another assay is CC-1. Nature of the assay: Cytotoxicity against rat CC1 after 48 hrs by MTT assay. The following applies: CC-1, 48 h. It is filed as cell-based.
The target in assay [3] is T1, Interleukin-2 receptor subunit alpha (Homo sapiens, UniProt P01589).
T1 sequence (P01589 whole entry): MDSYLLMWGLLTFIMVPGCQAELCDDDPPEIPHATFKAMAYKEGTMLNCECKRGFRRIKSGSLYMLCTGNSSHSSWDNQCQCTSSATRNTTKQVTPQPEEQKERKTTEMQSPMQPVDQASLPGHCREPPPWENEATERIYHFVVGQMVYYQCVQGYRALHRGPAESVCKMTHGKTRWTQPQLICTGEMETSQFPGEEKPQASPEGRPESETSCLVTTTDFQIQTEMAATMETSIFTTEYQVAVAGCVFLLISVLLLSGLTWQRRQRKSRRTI
Nature of the assay: Competitive inhibition of IL2 receptor alpha (unknown origin).

For the compound `CC1CC(=O)Nc2cc(N)ccc2N1` (configuration not stated), the half-maximal inhibitory concentration (IC50) came to 4.5 µg/mL (≈ 23.5 µM) in the assay on Blood, 13 µg/mL (≈ 68 µM) in the assay on PBMC [1] and 4.4 µg/mL (≈ 23 µM) in the assay on PBMC [2].

`CC1(C)CC(=O)Nc2cc([N+](=O)[O-])ccc2N1` came in with an IC50 in the assay with Blood of 12.4 µg/mL (≈ 52.7 µM).

`CC1C/C(=N\NC(=O)Nc2ccccc2)Nc2cc([N+](=O)[O-])ccc2N1` (configuration not stated): in the assay on PBMC [2], the IC50 is 25.5 µg/mL (≈ 72 µM).

As to `Nc1ccc(C(=O)/C=C/c2cccc(Cl)c2)cc1`, the IC50 with 3T3-L1 is 9.5 µg/mL (≈ 36.9 µM); in the assay on Blood it was 24.4 µg/mL (≈ 94.7 µM); in the assay with PBMC [1], 2.5 µg/mL (≈ 9.7 µM); in the assay with PBMC [2] it was less than 0.5 µg/mL; in the assay with CC-1, 16.7 µg/mL (≈ 64.8 µM).

For the compound `Cc1ccc(/C=C/C(=O)c2ccc(N)cc2)cc1`, the IC50 in the assay on Blood amounted to 12.4 µg/mL (≈ 52.3 µM); in the assay on PBMC [1] it was 15.1 µg/mL (≈ 63.6 µM); with PBMC [2], 3.2 µg/mL (≈ 13.5 µM).

Take `O=C(/C=C/c1ccccc1)c1cccc(O)c1`: the IC50 in the assay on Blood was found to be 4.8 µg/mL (≈ 21.4 µM); with PBMC [1], 14.2 µg/mL (≈ 63.3 µM); with PBMC [2], 8.2 µg/mL (≈ 36.6 µM).

Take `Cc1ccc(/C=C/C(=O)c2ccccc2)cc1`: the results for the half-inhibitory concentration (IC50) in the assay with Blood, in the assay on PBMC [1] and in the assay on PBMC [2] were 31 µg/mL (≈ 139 µM), 15.6 µg/mL (≈ 70.2 µM) and 7.8 µg/mL (≈ 35.1 µM), respectively.

The compound `COC(=O)[C@H](Cc1ccc(C#Cc2ccccc2)cc1)NC(=O)C[C@H]1CCCN(C(=N)N)C1` returned an IC50 in assay [3] of 6 µM.

Turning to `O=C(/C=C/c1ccccc1)c1ccccc1O` [2'-HYDROXYCHALCONE], the IC50 was determined as 19.7 µg/mL (≈ 87.8 µM) in the assay on PBMC [1] and 11 µg/mL (≈ 49.1 µM) with PBMC [2].

What is called IC50 is the midpoint of a concentration-inhibition curve.
